Test system: guinea pigs exposed to smoke of cigarette
Experiment: Cigarette smoke exposure guinea pig COPD model, respiratory functions by Double-chamber Plethymograph method
Type: in vivo, Hartley strain guinea pigs
Conditions: 10 mg/kg orally once a day; for Changes in Peak expiration flow / Changes in Specific airway resistance value: change vs value before exposure to cigarette smoke
Experimental: In accordance with the method of Jun-ichi Fuchikami, et al. (Japanese Journal of Pharmacology, 2000, (82), p. 247), the following pharmacological test was conducted.
Hartley strain guinea pigs (5 weeks age, body weight: 300 to 379.5 g) were exposed to smoke of cigarette (trade name: Hi-Light, manufactured by Japan Tobacco Inc.) for 1 hour/day, 5 days a week, during 4 weeks, by using a flow-past type nose-only inhalation chamber, manufactured by Muenster Co. Control group as a normal group was exposed to the atmospheric air instead of cigarette smoke.
Compound A was suspended in 0.5% tragacanth gum aqueous solution, and this suspension was orally administered compulsorily to the guinea pigs (compound A administered group), in the amount of 10 mg/kg once a day, 1 hour before the exposure to cigarette smoke in the day of exposure, and in the morning in the day of non-exposure, respectively.
To the guinea pigs in the vehicle administered group, a 0.5% tragacanth gum aqueous solution without containing Compound A was orally administered instead of the suspension of compound A.
While, to the guinea pigs in the control group, neither the 0.5% tragacanth aqueous solution nor the compound A suspension were administered.
Before exposure and during the period of 4 weeks of exposure to the smoke of cigarette, the respiratory functions (specific airway resistance and peak expiration flow) of the guinea pigs were non-invasively assessed once a week under conscious condition, using Double-chamber Plethymograph method with a respiratory function measuring equipment (Pulmos-I, manufactured by M.I.P.S. Co.).
The respiratory functions (i.e., values of specific airway resistance and peak expiration flow) were obtained as an average of 100 times measured values of the functions, and were shown as the changes of percentage to the respective value of respiratory function measured before exposure to cigarette smoke.

## CCOc1ccc(-c2nc(-c3cccc(C(=O)O)n3)cs2)cc1OCC [Compound A, 6-[2-(3,4-diethoxyphenyl)thiazol-4-yl]pyridine-2-carboxylic acid]
4 weeks cigarette smoke exposure
  Effect on specific airway resistance and peak expiration flow as compared with vehicle administered group: excellent improving effects
1 Week after exposure
  Changes in Peak expiration flow: 9.67%
  Changes in Specific airway resistance value: 12.75%
2 Week after exposure
  Changes in Peak expiration flow: 15.67%
  Changes in Specific airway resistance value: 41.82%
3 Week after exposure
  Changes in Peak expiration flow: 14.08%
  Changes in Specific airway resistance value: 61.08%
4 Week after exposure
  Changes in Peak expiration flow: 37.06%
  Changes in Specific airway resistance value: 51.26%
